*1 amine or outer side, *2 acyl side, *3 side chain or, on linkers, in order; H or OH if unused. Where a SMILES comes first, the peptide text is derived from it. Bridges are numbered along the chain shown (N, C = ends). TBMB = c1c(C[*:1])cc(C[*:3])cc1C[*:2]
What was measured:
Urease = Urease (Helicobacter pylori, UniProt P14916+P69996); conditions: read-out: Affinity IC50; reference 9; cited from earlier work
plasma kallikrein [1] = molecular target: T1, plasma kallikrein (Homo sapiens, UniProt P03952); test: Activity measurement of chemically synthesized human plasma kallikrein inhibitors (residual activity, Z-Phe-Arg-AMC); assay type: biochemical; parameters: purchased Innovative Research (Southfiled, Mich., USA); conditions: for IC50: synthetic peptide after modification with TBMB, human plasma kallikrein 0.1 nM, read-out: IC50 (nM) Bi-cyclic peptide
Description: (§1) Recombinant mouse plasma kallikrein from R&D Systems (Minneapolis, Minn., USA) with a signal peptide was proteolytically activated with 0.5 mg/ml thermolysin at 37° C. for 1 hr. […] Inhibitor hydrolysed in one binding loop was generated by incubation of TBMB modified peptide PK15 with human plasma kallikrein at a molar ration of 5:1 for 24 hours at 37° C. and subsequent heat inactivation of the enzyme at 60° C. (30 min). Apparent Ki values were calculated according to the Cheng and Prusoff equation (Cheng, Y. and Prusoff, W. H., Biochem. Pharmacol., 1973).
as §1, with “ratio” for “ration”, “equation.” for “equation (Cheng, Y. and Prusoff, W. H., Biochem. Pharmacol., 1973).”

[2] = molecular target: Urokinase-type plasminogen activator (uPA) (Homo sapiens, UniProt P00749); conditions: reference 3; read-out: Affinity K1; cited from earlier work
Chymotrypsin = Chymotrypsin (Bos taurus, UniProt P00766); conditions: reference 5; read-out: Affinity K1; cited from earlier work
ErbB-2 = ErbB-2 (Homo sapiens, UniProt P04626); conditions: reference 8; read-out: Affinity K1; cited from earlier work
[3] = system: thrombin generation in human plasma; test: Contact activation in human plasma: thrombin activation time triggered by actin; assay type: biochemical; conditions: for thrombin formation in human plasma: 50 nM inhibitor concentration
[4] = system: factor XIIa and plasma kallikrein in human plasma; test: Activation of factor XIIa and plasma kallikrein in human plasma after kaolin (H-D-Pro-Phe-Arg-pNA); assay type: biochemical; conditions: for IC50: human plasma, kaolin, read-out: inhibitor concentration required to reduce factor XIIa activity by 50%
Description: (§2) Normal human plasma from single donors was purchased from 3H Biomedical (Uppsala, Sweden). The plasma was centrifuged at 1500×g at 20° C. for 15 minutes to obtain platelet-poor plasma (PPP). Aliquots of the PPP were stored in polypropylene tubes at −80° C. […] Activation of factor XIIa and human plasma kallikrein were measured as follows. 2 μg kaolin was added to the plasma samples, mixed well and incubated for 20 minutes at 37° C. The samples were diluted 250-fold in 50 mM Tris-Cl pH 7.8, 150 mM NaCl. Plasma kallikrein-like activity was measured with the chromogenic substrate H-D-Pro-Phe-Arg-pNA (100 μM; Bachem, Bubendorf, Switzerland) using an absorption plate reader (absorption at […]; Molecular Devices, Sunnyvale, Calif., USA).
as §2, with “was” for “and human plasma kallikrein were”, “μg of” for “μg”, “H-D-Pro-Phe-Arg (SEQ ID No. 37)-pNA” for “H-D-Pro-Phe-Arg-pNA”, “USA). The same chromogenic substrate is also recognized and modified by plasma kallikrein.” for “USA).”

[5] = in vivo; cited from earlier work
Beta-lactamase = Beta-lactamase (Stenotrophomonas maltophilia, UniProt P52700); conditions: reference 11; read-out: Affinity IC50; cited from earlier work
TF-fVII = TF-fVII (Homo sapiens, UniProt P08709); conditions: reference 6; read-out: Affinity IC50; cited from earlier work
[6] = molecular target: Urokinase-type plasminogen activator (uPA) (Mus musculus, UniProt P06869); conditions: reference 4; read-out: Affinity K1; cited from earlier work
Human kallikrein 2 = Human kallikrein 2 (Homo sapiens, UniProt P20151); conditions: reference 2; read-out: Affinity IC50; cited from earlier work
DNase II = conditions: reference 12; read-out: Affinity K1; cited from earlier work
mouse plasma kallikrein = molecular target: T2, mouse plasma kallikrein (Mus musculus, UniProt P26262); test: Specificity measurement, mouse plasma kallikrein; assay type: biochemical; conditions: highest concentration tested 10 μM
T2 construct: purchased R&D Systems (Minneapolis, Minn., USA)
Description: as §1
as §1, with “ratio” for “ration”, “equation.” for “equation (Cheng, Y. and Prusoff, W. H., Biochem. Pharmacol., 1973).”

factor XIa = molecular target: T3, factor XIa (Homo sapiens, UniProt P03951); test: Specificity measurement, factor XIa; assay type: biochemical; conditions: highest concentration tested 10 μM
T3 construct: factor XIa (0.8 nM; Innovative Research, Southfiled, Mich., USA); purchased Innovative Research (Southfiled, Mich., USA)

human thrombin = molecular target: T4, human thrombin (Homo sapiens, UniProt P00734); test: Specificity measurement, thrombin; assay type: biochemical; conditions: highest concentration tested 10 μM
T4 construct: the activity of human thrombin (2 nM; Innovative Research, Southfiled, Mich., USA); purchased Innovative Research (Southfiled, Mich., USA)

plasma kallikrein [7] = molecular target: T1, plasma kallikrein; test: Hydrolysis of the inhibitor on incubation with human plasma kallikrein; assay type: in vitro ADME; parameters: purchased Innovative Research (Southfiled, Mich., USA)
Description: as §1
as §1, with “ratio” for “ration”, “equation.” for “equation (Cheng, Y. and Prusoff, W. H., Biochem. Pharmacol., 1973).”

[8] = molecular target: Angiotensin converting enzyme 2 (ACE2) (Homo sapiens, UniProt Q9BYF1); conditions: reference 7; read-out: Affinity K1; cited from earlier work
Pancreatic lipase = molecular target: T5, Pancreatic lipase (Sus scrofa, UniProt P00591); conditions: reference 10; read-out: Affinity IC50; cited from earlier work
T5 sequence (P00591 1-450): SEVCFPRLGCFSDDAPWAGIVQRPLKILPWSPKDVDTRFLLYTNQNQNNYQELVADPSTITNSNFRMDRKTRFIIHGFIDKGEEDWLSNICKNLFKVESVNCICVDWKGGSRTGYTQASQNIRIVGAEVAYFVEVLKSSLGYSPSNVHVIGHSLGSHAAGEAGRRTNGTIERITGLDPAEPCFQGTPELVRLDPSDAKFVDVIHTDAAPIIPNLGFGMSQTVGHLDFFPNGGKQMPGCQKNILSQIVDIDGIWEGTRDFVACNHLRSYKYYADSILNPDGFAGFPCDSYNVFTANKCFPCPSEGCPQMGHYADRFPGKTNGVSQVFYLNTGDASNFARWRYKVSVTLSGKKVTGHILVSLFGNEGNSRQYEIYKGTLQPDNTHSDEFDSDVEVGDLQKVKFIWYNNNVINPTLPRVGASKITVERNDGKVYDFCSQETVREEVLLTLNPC

T1 sequence (P03952 391-638 limits assumed): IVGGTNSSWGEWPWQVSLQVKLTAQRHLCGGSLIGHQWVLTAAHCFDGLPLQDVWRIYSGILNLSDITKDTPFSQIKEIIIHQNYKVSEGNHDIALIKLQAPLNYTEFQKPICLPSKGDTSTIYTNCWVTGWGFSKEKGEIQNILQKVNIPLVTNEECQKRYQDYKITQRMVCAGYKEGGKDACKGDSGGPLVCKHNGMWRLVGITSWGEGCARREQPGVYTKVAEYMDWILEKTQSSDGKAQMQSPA
T1 sequence (P03952 20-390 partner limits assumed): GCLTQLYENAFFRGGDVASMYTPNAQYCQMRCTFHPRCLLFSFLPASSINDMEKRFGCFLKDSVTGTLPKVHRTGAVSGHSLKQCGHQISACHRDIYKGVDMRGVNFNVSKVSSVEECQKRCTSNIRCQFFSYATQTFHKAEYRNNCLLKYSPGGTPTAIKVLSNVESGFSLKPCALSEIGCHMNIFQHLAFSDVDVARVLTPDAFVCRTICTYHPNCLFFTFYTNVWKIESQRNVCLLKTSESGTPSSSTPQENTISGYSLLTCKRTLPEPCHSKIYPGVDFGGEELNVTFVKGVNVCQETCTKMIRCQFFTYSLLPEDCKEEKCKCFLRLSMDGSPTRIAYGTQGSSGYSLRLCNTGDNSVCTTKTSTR
Chain of Urease (P69996 whole entry): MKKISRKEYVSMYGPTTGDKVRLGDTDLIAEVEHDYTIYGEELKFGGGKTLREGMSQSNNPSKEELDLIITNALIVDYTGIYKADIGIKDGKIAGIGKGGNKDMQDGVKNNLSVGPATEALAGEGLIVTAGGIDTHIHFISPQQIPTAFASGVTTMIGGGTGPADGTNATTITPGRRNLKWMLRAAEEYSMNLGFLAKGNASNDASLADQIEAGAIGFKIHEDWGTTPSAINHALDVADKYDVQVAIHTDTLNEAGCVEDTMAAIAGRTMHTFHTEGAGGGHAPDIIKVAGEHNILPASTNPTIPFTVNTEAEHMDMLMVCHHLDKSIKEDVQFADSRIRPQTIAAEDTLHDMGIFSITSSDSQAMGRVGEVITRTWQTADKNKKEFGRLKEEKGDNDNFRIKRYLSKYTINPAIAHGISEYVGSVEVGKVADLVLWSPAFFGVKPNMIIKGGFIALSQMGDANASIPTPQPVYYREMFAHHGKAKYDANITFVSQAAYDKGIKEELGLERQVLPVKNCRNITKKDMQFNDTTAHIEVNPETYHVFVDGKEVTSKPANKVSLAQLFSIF
Chain of Urease (P14916 whole entry): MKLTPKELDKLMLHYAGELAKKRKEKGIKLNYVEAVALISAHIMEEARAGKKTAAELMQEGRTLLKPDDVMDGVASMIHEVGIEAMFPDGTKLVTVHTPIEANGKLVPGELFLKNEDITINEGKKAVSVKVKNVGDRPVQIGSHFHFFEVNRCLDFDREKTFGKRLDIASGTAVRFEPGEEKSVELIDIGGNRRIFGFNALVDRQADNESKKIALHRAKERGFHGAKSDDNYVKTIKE
Chain of Urokinase-type plasminogen activator (uPA) (Mus musculus, UniProt P06869) (P06869 21-433): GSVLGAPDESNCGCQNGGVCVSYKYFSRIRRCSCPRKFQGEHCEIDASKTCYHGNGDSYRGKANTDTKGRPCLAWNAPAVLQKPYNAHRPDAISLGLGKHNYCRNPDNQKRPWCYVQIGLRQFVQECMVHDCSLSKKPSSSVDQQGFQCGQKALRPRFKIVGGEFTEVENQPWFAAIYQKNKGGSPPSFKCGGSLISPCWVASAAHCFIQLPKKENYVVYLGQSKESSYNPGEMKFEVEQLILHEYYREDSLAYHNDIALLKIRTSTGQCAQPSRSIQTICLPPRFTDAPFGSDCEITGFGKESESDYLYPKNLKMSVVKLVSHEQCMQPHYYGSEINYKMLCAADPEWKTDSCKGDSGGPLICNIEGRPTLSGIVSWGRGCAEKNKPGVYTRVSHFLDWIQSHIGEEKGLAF
Chain of Beta-lactamase (P52700 34-290): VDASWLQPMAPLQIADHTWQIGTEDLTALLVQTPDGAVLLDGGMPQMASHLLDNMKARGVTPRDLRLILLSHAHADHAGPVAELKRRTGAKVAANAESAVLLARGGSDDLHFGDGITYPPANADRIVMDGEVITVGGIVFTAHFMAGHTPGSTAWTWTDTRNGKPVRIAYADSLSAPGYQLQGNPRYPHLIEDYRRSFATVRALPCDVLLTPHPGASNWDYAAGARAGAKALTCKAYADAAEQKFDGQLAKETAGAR
Chain of Human kallikrein 2 (P20151 25-261): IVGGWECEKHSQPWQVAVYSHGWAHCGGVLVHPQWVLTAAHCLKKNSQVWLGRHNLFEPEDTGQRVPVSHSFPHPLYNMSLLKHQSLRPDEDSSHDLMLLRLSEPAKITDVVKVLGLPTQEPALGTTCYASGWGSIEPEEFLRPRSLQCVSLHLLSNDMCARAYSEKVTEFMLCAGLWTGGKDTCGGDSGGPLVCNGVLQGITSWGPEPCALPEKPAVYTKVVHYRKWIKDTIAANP
T3 sequence (P03951 388-625 limits assumed): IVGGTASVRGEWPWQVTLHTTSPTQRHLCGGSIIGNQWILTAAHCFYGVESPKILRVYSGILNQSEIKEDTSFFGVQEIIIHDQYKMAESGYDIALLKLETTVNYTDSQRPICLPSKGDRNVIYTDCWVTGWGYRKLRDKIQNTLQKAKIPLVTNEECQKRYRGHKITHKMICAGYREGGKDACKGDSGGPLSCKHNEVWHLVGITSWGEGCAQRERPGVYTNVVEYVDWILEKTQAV
T3 sequence (P03951 19-387 partner limits assumed): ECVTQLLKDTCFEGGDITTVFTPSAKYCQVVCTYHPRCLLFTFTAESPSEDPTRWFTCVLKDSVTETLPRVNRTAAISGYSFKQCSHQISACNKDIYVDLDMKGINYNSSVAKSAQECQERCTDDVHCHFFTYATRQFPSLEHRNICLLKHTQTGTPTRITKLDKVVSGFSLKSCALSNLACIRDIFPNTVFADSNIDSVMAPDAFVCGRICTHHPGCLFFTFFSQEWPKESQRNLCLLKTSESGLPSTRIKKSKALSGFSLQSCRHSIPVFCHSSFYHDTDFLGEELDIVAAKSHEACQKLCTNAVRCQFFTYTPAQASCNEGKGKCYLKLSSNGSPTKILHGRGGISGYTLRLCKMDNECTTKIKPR
T2 sequence (P26262 391-638 limits assumed): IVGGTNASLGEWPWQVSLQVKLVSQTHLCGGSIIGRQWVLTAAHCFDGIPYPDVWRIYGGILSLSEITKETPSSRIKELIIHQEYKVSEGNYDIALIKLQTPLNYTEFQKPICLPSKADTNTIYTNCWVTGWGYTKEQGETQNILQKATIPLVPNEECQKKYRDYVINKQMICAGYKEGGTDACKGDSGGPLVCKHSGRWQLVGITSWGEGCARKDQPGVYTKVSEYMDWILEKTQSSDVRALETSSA
T2 sequence (P26262 20-390 partner limits assumed): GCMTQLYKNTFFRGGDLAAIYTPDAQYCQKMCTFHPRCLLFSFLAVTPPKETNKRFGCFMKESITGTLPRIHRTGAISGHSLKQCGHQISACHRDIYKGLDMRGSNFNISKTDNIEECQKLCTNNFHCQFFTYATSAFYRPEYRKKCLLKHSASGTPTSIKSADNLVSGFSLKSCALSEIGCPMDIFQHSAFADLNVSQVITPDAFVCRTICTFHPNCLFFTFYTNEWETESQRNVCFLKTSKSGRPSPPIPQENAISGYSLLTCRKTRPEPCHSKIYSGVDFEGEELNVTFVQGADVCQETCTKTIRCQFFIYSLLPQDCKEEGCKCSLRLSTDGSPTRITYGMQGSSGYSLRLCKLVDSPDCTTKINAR
Chain of Angiotensin converting enzyme 2 (ACE2) (Q9BYF1 18-805, species assumed): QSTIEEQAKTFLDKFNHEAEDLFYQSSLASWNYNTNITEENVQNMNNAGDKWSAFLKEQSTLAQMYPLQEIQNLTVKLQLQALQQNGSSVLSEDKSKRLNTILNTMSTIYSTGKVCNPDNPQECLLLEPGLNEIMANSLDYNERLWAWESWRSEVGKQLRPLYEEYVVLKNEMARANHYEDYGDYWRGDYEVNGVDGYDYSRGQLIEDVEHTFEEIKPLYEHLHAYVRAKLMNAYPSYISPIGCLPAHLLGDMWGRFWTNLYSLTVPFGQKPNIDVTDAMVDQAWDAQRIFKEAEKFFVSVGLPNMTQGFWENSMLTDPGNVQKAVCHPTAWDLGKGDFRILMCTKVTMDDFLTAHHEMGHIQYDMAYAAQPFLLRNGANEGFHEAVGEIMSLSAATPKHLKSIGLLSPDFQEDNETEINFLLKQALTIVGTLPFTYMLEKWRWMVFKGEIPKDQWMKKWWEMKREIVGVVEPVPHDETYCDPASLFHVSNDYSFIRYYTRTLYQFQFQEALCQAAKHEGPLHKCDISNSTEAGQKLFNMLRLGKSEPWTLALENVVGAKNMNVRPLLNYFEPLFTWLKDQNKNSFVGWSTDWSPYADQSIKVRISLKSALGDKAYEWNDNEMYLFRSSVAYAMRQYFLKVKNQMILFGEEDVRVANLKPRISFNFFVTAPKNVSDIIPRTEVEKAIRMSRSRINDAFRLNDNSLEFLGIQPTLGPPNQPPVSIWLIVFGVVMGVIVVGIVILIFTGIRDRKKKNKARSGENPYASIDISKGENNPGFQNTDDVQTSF

For YDFYWW, the IC50 (Urease) is listed as 30000 nM.
Compound `CC(C)[C@@H]1NC(=O)[C@H](CCCNC(=N)N)NC(=O)[C@@H]2CSCc3cc(cc(c3)CSC[C@@H](C(=O)NCC(N)=O)NC(=O)[C@@H]3CCCN3C(=O)[C@H]([C@@H](C)O)NC(=O)[C@H](Cc3c[nH]c4ccccc34)NC(=O)[C@H](CC(N)=O)NC1=O)CSC[C@H](NC(=O)[C@H](C)N)C(=O)NCC(=O)N[C@@H]([C@@H](C)O)C(=O)NCC(=O)N[C@@H](CCC(=O)O)C(=O)NCC(=O)N[C@@H](CCCNC(=N)N)C(=O)N2` [PK13] (H-ACGTGEGRCRVNWTPCG-NH2; linker 2-9-16 via TBMB) has an IC50 (plasma kallikrein [1]) of 39.1 nM.
For CSWRGLENHRMC, the Ki [2] is given as 6700 nM.
For CCFSWRCRC, the Ki (Chymotrypsin) is listed as 1000 nM.
In the case of KCCYSL, the Ki (ErbB-2) is given as 30000 nM.
With aprotinin the “thrombin formation in human plasma” value [3] was “had no effect”, the “lag time of thrombin activation” value ([3]; 5 μM inhibitor concentration) was “more prolonged by aprotinin than by the small molecule inhibitor” and the IC50 [4] was 5000 nM. For the same compound, the adverse effects [5] was “anaphylaxis and renal toxicity”.
In the case of CVHSPNREC, the IC50 (Beta-lactamase) is listed as 9000 nM.
`CC[C@H](C)[C@@H]1NC(=O)[C@H](CCC(=O)O)NC(=O)[C@H]([C@@H](C)CC)NC(=O)[C@@H]2CCCN2C(=O)[C@@H]2CSCc3cc(cc(c3)CSC[C@@H](C(=O)NCC(N)=O)NC(=O)[C@@H]3CCCN3C(=O)[C@H](Cc3ccccc3)NC1=O)CSC[C@H](NC(=O)[C@H](C)N)C(=O)N[C@@H](CO)C(=O)N[C@@H]([C@@H](C)O)C(=O)N[C@@H](CCC(=O)O)C(=O)N[C@@H](CCCNC(=N)N)C(=O)N[C@@H](CCCNC(=N)N)C(=O)N[C@@H](Cc1ccc(O)cc1)C(=O)N2` [PK4] (H-ACSTERRYCPIEIFPCG-NH2; linker 2-9-16 via TBMB) showed an IC50 (plasma kallikrein [1]) of 33 nM.
With `CSCC[C@@H]1NC(=O)[C@H](CC(C)C)NC(=O)[C@H](CC(=O)O)NC(=O)[C@H](CCC(=O)O)NC(=O)[C@H](Cc2ccc(O)cc2)NC(=O)[C@@H]2CSCc3cc(cc(c3)CSC[C@@H](C(=O)NCC(N)=O)NC(=O)[C@H](Cc3c[nH]c4ccccc34)NC1=O)CSC[C@H](NC(=O)[C@H](C)N)C(=O)N[C@@H](C)C(=O)N1CCC[C@H]1C(=O)N[C@@H](Cc1c[nH]c3ccccc13)C(=O)N[C@@H](CCCNC(=N)N)C(=O)N[C@@H]([C@@H](C)O)C(=O)N[C@@H](C)C(=O)N2` [PK6] (H-ACAPWRTACYEDLMWCG-NH2; linker 2-9-16 via TBMB) the IC50 (plasma kallikrein [1]) was 21.2 nM.
For EEWEVLCWTWETCER, the IC50 (TF-fVII) is listed as 1.5 nM.
For CPAYSRYLDC, the Ki [6] is given as 400 nM.
In the case of SRFKVWWAAF, the IC50 (Human kallikrein 2) is given as 3400 nM.
For CLRLLQWFLWAC, the Ki (DNase II) is given as 200 nM.
With `CC(C)C[C@@H]1NC(=O)[C@H](C)NC(=O)[C@H](CCC(=O)O)NC(=O)[C@H](CC(=O)O)NC(=O)[C@H](C)NC(=O)[C@@H]2CCCN2C(=O)[C@@H]2CSCc3cc(cc(c3)CSC[C@@H](C(=O)NCC(N)=O)NC1=O)CSC[C@H](NC(=O)[C@H](C)N)C(=O)N[C@@H](CO)C(=O)N[C@@H](CC(=O)O)C(=O)N[C@@H](CCCNC(=N)N)C(=O)N[C@@H](Cc1ccccc1)C(=O)N[C@@H](CCCNC(=N)N)C(=O)N[C@@H](CC(N)=O)C(=O)N2` [PK15] (H-ACSDRFRNCPADEALCG-NH2; linker 2-9-16 via TBMB (inferred)) the “inhibition of mouse plasma kallikrein” value (mouse plasma kallikrein) was “did not inhibit”, the “inhibition of human factor XIa” value (factor XIa) was “did not inhibit” and the “inhibition of human thrombin” value (human thrombin) was “did not inhibit”. For the same compound, the “thrombin formation in human plasma” value [3] was “delayed thrombin formation”, the “lag time of thrombin generation compared to control sample (FIG. 8)” value ([3]; 5, 50, 500 or 5000 nM) was “dose-dependent prolongation of lag time” and the “interruption of intrinsic coagulation pathway / contact activation in human plasma ex vivo” value [4] was “efficiently interrupted the intrinsic coagulation pathway”. The “activation of factor XIIa and plasma kallikrein in human plasma” value ([4]; 5 μM, plasma of three donors) was “essentially be suppressed”, the IC50 [4] was 160 nM and the Ki (plasma kallikrein [1]) was 1.5 nM. For the same compound, the IC50 (plasma kallikrein [1]) was 1.7 nM, the “cleavage of a peptide bond on incubation with kallikrein” value (plasma kallikrein [7]; 24 h at 37° C.) was 90% and the “state after prolonged incubation with human plasma kallikrein” value (plasma kallikrein [7]; cleaved in one of the loops) was “remained intact and active”.
For GDYSHCSPLRYYPWWKCTYPDP, the Ki [8] is given as 2.8 nM.
For CQPHPGQTC, the IC50 (Pancreatic lipase) is listed as 16000 nM.

From US9657288B2, “Connector compound peptide phage display” (BICYCLE THERAPEUTICS LIMITED, priority 2008, dated 2017)
